Laboratory results: patent publication US20220372585A1, “Sensors for Aromatic Compounds and Methods of Making and Using Same” (Washington University, priority 2021, published 2022)
Entries after “also recorded” stand apart in the source; their conditions may differ. Read-outs that look alike come from different tables or passages of the source.

How the values were obtained:
[1] = Sauerkraut, safe limit; cited from earlier work
[2] = system: G494S TynA with wild-type FeaR; format: cell-based, E. coli MG1655; details: for Fmax / Fmin / n (Hill coefficient): G494S TynA + wild-type FeaR, pCX008, pCX010
Method: (§1) Flow cytometry was performed as previously described. […] Cytometry data was gated by forward and side scatter.

[3] = system: G494S TynA with A81T FeaR; format: cell-based, E. coli MG1655; details: for Fmax / Fmin / n (Hill coefficient): G494S TynA + A81T FeaR, pCX008, pCX014; for response: G494S*
Method: as §1

G494S TynA and A81S FeaR = format: cell-based, E. coli MG1655; details: for Fmax / Fmin / n (Hill coefficient): G494S TynA + A81S FeaR, pCX008, pCX032
Method: as §1

[4] = system: wild-type TynA with A81T FeaR; format: cell-based, E. coli MG1655; details: 24 h; for effect of the A81T FeaR mutation on the response of the sensor: wild-type TynA, 1 mM, FIG. 21
Method: as §1

[5] = system: G415H TynA with wild-type FeaR; format: cell-based, E. coli MG1655; details: for Fmax / Fmin / n (Hill coefficient): G415H TynA + wild-type FeaR, pCX008, pCX015; for response: G415H
Method: as §1

TynA-FeaR system = assay: microbe, parasite or virus in culture; details: for EC50 / fold induction at 1250 µM: Escherichia coli; for EC50: read-out: KA (half maximal constant); for fold induction at 1250 µM: read-out: fold induction of the reporter; for Fmax / Fmin / n (Hill coefficient): wild-type TynA and FeaR, pCX008, pHJY022
Method: To develop sensors for aromatic amines, the TynA-FeaR system was first characterized in EcN. A sensor plasmid was constructed, which consisted of constitutively expressed TynA and FeaR from E. coli MG1655, and a reporter plasmid, which consisted of GFP under the control of PtynA (see e.g., FIG. 3B). […] Next, the sensitivity and selectivity to different ligands was characterized.
For fluorescence-based quantification, single colonies were transferred to 5 mL LB medium (VWR, Radnor, Pa., USA) in 14 mL round bottom tubes and incubated overnight at 250 rpm and 37° C. Unless otherwise specified, experimental cultures were prepared by diluting overnight cultures 100× into 0.6 mL M9 minimal medium supplemented with 1 mM MgSO4, […]), and 2% w/v glycerol as well as the respective ligands (DA, PEA, Tyra, and Trypta) in 2 mL 96-deep well plates. Cultures were grown for 24 h at 37° C. and 250 rpm. After 5 h and 24 h of incubation, samples were obtained from the cultures for flow cytometry analysis.
Flow cytometry was performed as previously described. Culture samples were collected and diluted to a final OD600 of ˜0.005-0.01 in […] filtered phosphate-buffered saline supplemented with 2 mg/ml kanamycin in 96-well assay microplates (U-bottom, REF-353910 from BD Biosciences, San Jose, Calif., USA). The fluorescence of the samples was measured using a Millipore Guava EasyCyte High Throughput flow cytometer with a 488 nm excitation laser and 512/18 nm emission filter. Cytometry data was gated by forward and side scatter. FlowJo (TreeStar Inc.) was used to obtain the arithmetic mean of the fluorescence distribution. The averages of the arithmetic means were calculated from three biological replicates. The average fluorescence of the non-fluorescent wild-type cell was subtracted from each sample to obtain the final fluorescence (au) values (Equation 2). To obtain the relative fluorescence in FIG. 6A-FIG. 6C, fluorescence values for each variant were normalized to the fluorescence of the wild-type sensor using Equation 3.
The Hill equation (Equations 4 and 5) was used to fit lines to the fluorescence data. The model was fit to the experimentally collected data by minimizing the root mean square error (RMSE; Equation 6).

[6] = system: wild-type TynA with M83Y FeaR; assay: PtynA-GFP reporter, wild-type TynA with M83Y FeaR (pCX068); format: cell-based, E. coli MG1655; details: pCX008, pCX068, FIG. 6D, 24 h
Method: as §1

[7] = system: wild-type TynA and A81L FeaR; assay: microbe, parasite or virus in culture; format: cell-based, E. coli MG1655; details: for EC50: Escherichia coli, read-out: KA (half maximal constant), wild-type TynA + A81L FeaR; for response: A81L FeaR
Method: as §1

[8] = system: wild-type TynA with A81P FeaR; assay: microbe, parasite or virus in culture; format: cell-based, E. coli MG1655; details: for EC50: Escherichia coli, read-out: KA (half maximal constant), wild-type TynA + A81P FeaR
Method: as §1

[9] = system: TynA-KP with FeaR-KA I109N; assay: GFP fluorescence from PtynA-MG with TynA-KP and FeaR-KA I109N; format: cell-based, Klebsiella aerogenes; details: for induction of fluorescence: I109N variant, 0.5 mM, 24 h, FIG. 32
Description: FIG. 32. […] Sensor system with PtynA-MG, TynA-KP and FeaR-KA was chosen as the wild type (WT) for further directed evolution. TynA-KP was employed to reduce the possible interference from DA during evolution processes. Values and error bars are the average and standard deviation of biological triplicate, respectively.
FIG. 33A-FIG. 33B. […] The expression of PtynA-MG was regulated by the TynA-KP with FeaR-KA I109N mutant. Points represent experimental data while lines represent the fitted curves. […] Values and error bars are the average and standard deviation of biological triplicate, respectively.

[10] = wild-type TynA + A81T FeaR, pCX008, pCX016, FIG. 22A
[11] = wild-type TynA + A81L FeaR, pCX008, pCX024, FIG. 5C, 24 h
[12] = wild-type TynA + A81L FeaR, pCX008, pCX024, FIG. 24, 5 h
[13] = wild-type TynA + A81P FeaR, pCX008, pCX025, FIG. 25A, 5 h
[14] = wild-type TynA + A81P FeaR, pCX008, pCX025, FIG. 25B, 24 h

For `NCCc1ccccc1` [Phenylethylamine, phenylethylamine], the Concentration [1] is listed as 30 µM, the Fmax ([2]; FIG. 18A, 5 h) is listed as 18 and the Fmin ([2]; FIG. 18A, 5 h) is listed as 0.8. For the same compound, the “n (Hill coefficient)” value ([2]; FIG. 18A, 5 h) was 36, the Fmax ([2]; FIG. 18B, 22B, 24 h) was 4012 and the Fmin ([2]; FIG. 18B, 22B, 24 h) was 3.4. For the same compound, the “n (Hill coefficient)” value ([2]; FIG. 18B, 22B, 24 h) was 1.3, the fold induction ([2]; G494S single mutant sensor) was 50 fold and the Fmax ([3]; FIG. 4C, 22B, 24 h) was 790. The Fmin ([3]; FIG. 4C, 22B, 24 h) was 5.4, the “n (Hill coefficient)” value ([3]; FIG. 4C, 22B, 24 h) was 1.4 and the Fmax ([3]; FIG. 17A, 5 h) was 9280. For the same compound, the Fmin ([3]; FIG. 17A, 5 h) was 1.1, the “n (Hill coefficient)” value ([3]; FIG. 17A, 5 h) was 1.2 and the fold induction ([3]; G494S* double mutant sensor) was 140 fold. For the same compound, the Fmax (G494S TynA and A81S FeaR; FIG. 23A, 5 h) was 462, the Fmin (G494S TynA and A81S FeaR; FIG. 23A, 5 h) was 3.4 and the “n (Hill coefficient)” value (G494S TynA and A81S FeaR; FIG. 23A, 5 h) was 1.2. The Fmax (G494S TynA and A81S FeaR; FIG. 25B, 22B [sic], 24 h) was 475, the Fmin (G494S TynA and A81S FeaR; FIG. 25B, 22B [sic], 24 h) was 5.9 and the “n (Hill coefficient)” value (G494S TynA and A81S FeaR; FIG. 25B, 22B [sic], 24 h) was 1.5. For the same compound, the Fmax [4, 10] was 1010, the Fmin [4, 10] was 18 and the “n (Hill coefficient)” value [4, 10] was 4.3. For the same compound, the “effect of the A81T FeaR mutation on the response of the sensor” value [4] was “insignificant impact”, the Fmax ([5]; FIG. 4D, 24 h) was 84 and the Fmin ([5]; FIG. 4D, 24 h) was 0. For the same compound, the “n (Hill coefficient)” value ([5]; FIG. 4D, 24 h) was 0.6, the Fmax ([5]; FIG. 17B, 5 h) was 118 and the Fmin ([5]; FIG. 17B, 5 h) was 0. For the same compound, the “n (Hill coefficient)” value ([5]; FIG. 17B, 5 h) was 0.4, the EC50 (TynA-FeaR system; 5 h) was 42 µM and the EC50 (TynA-FeaR system; 24 h) was 87 µM. For the same compound, the fold induction at 1250 µM (TynA-FeaR system) was greater than 1500, the Fmax (TynA-FeaR system; FIG. 3D, 24 h induction) was 1430 and the Fmin (TynA-FeaR system; FIG. 3D, 24 h induction) was 0. The “n (Hill coefficient)” value (TynA-FeaR system; FIG. 3D, 24 h induction) was 3.9, the Fmax (TynA-FeaR system; FIG. 14, 5 h induction) was 315 and the Fmin (TynA-FeaR system; FIG. 14, 5 h induction) was 10.4. For the same compound, the “n (Hill coefficient)” value (TynA-FeaR system; FIG. 14, 5 h induction) was 2, the Fmax [6] was 1004 and the Fmin [6] was 5.8. For the same compound, the “n (Hill coefficient)” value [6] was 2.1, the fold induction ([7]; A81L sensor, FIG. 5C) was 580 fold and the EC50 ([7]; 5 h, pCX008, pCX024, FIG. 24, 5 h) was 74 µM. The EC50 ([7]; 24 h, pCX008, pCX024, FIG. 5C, 24 h) was 140 µM, the Fmax [7, 11] was 585 and the Fmin [7, 11] was 4.8. The “KA (half maximal constant)” value [7, 11] was 0.137 mM, the “n (Hill coefficient)” value [7, 11] was 2.7 and the Fmax [7, 12] was 289. For the same compound, the Fmin [7, 12] was 5.1, the “n (Hill coefficient)” value [7, 12] was 2.6 and the EC50 ([8]; 5 h, pCX008, pCX025, FIG. 25A, 5 h) was 14 µM. The EC50 ([8]; 24 h, pCX008, pCX025, FIG. 25B, 24 h) was 50 µM, the Fmax [8, 13] was 14 and the Fmin [8, 13] was 0.4. For the same compound, the “n (Hill coefficient)” value [8, 13] was 8.4, the Fmax [8, 14] was 112 and the Fmin [8, 14] was 1.1. The “KA (half maximal constant)” value [8, 14] was 0.052 mM, the “n (Hill coefficient)” value [8, 14] was 20.3 and the induction of fluorescence [9] was “not”.

With `NCCc1c[nH]c2ccccc12` [Tryptamine, tryptamine] the response ([2]; G494S TynA, wild-type FeaR, 5 h and 24 h, FIG. 18A-B) was “lack of response”, the response ([3]; 5 h, FIG. 17A) was “lack of response” and the response ([3]; 24 h, FIG. 4C) was “lack of response”. For the same compound, the response (G494S TynA and A81S FeaR; G494S TynA and A81S FeaR, 5 h and 24 h, FIG. 23A-B) was “lack of response”, the “effect of the A81T FeaR mutation on the response of the sensor” value [4] was “significantly reduced” and the response ([5]; 5 h, FIG. 17B) was “lack of response”. For the same compound, the response ([5]; 24 h, FIG. 4D) was “lack of response; also recorded: minimal response”, the EC50 (TynA-FeaR system; 5 h) was 45 µM and the EC50 (TynA-FeaR system; 24 h) was 85 µM. It also gave a fold induction at 1250 µM (TynA-FeaR system) of roughly 280, an Fmax (TynA-FeaR system; FIG. 3D, 24 h induction) of 268 and a Fmin (TynA-FeaR system; FIG. 3D, 24 h induction) of 1.3. For the same compound, the “n (Hill coefficient)” value (TynA-FeaR system; FIG. 3D, 24 h induction) was 4.3, the Fmax (TynA-FeaR system; FIG. 14, 5 h induction) was 57 and the Fmin (TynA-FeaR system; FIG. 14, 5 h induction) was 5.9. For the same compound, the “n (Hill coefficient)” value (TynA-FeaR system; FIG. 14, 5 h induction) was 3.1, the response ([7]; 5 h, FIG. 24) was “lack of response” and the response ([7]; 24 h, FIG. 5C) was “lack of response”. For the same compound, the response ([8]; A81P FeaR, 5 h and 24 h, FIG. 25A-B) was “lack of response”, the response ([9]; FeaR-KA I109N, 5 h and 24 h, FIG. 33A-B) was “lack of response” and the induction of fluorescence [9] was “induction of fluorescence”.
